In ChEMBL document CHEMBL4334477, “Bioactive Sesquiterpene Lactones Isolated from the Whole Plants of Vernonia cinerea” (J Nat Prod, 2019):

Experiments:
HeLa = assay: Cytotoxicity against human HeLa cells assessed as inhibition of cell proliferation measured after 48 hrs by MTS assay; format: functional, cell-based
RAW264.7 [1] = assay: Antiinflammatory activity against mouse RAW264.7 cells assessed as inhibition of LPS-induced nitric oxide overproduction pretreated with LPS for 24 hrs followed by overnight incubation with compound by Griess assay; format: functional, cell-based
RAW264.7 [2] = assay: Cytotoxicity against mouse RAW264.7 cells assessed as cell proliferation at 10 ug/ml pretreated with LPS for 24 hrs followed by overnight incubation with compound by MTS assay; format: cell-based

## C/C=C(\C)C(=O)O[C@H]1C[C@@H](C)[C@@]2(O)CC[C@@](C)(/C=C3/OC(=O)C(COC(C)=O)=C31)O2
HeLa
  IC50: 32 µM
RAW264.7 [1]
  IC50: 21 µM
RAW264.7 [2]
  Activity: Non-Toxic

## C=C(C)C(=O)O[C@H]1C[C@@]23CO[C@@H](C[C@](C)(/C=C4/OC(=O)C(COC(C)=O)=C41)O2)[C@@H]3O
HeLa
  IC50: > 10 µM

## C=C(C)C(=O)O[C@H]1C[C@@]23CO[C@@H](C[C@](C)(/C=C4/OC(=O)C(COC)=C41)O2)[C@@H]3O
HeLa
  IC50: > 10 µM

## C=C(C)C(=O)O[C@H]1C[C@@H](C)[C@@]2(O)CC[C@@](C)(/C=C3/OC(=O)C(COC(C)=O)=C31)O2
HeLa
  IC50: 35 µM
RAW264.7 [1]
  IC50: 23 µM
RAW264.7 [2]
  Activity: Non-Toxic

## C=C(C)C(=O)O[C@H]1C[C@@]23CO[C@@H](C[C@](C)(C[C@@]4(OC)OC(=O)C(COC(C)=O)=C14)O2)[C@@H]3O
HeLa
  IC50: > 10 µM

## C/C=C(\C)C(=O)O[C@H]1C[C@@]23CO[C@@H](C[C@](C)(C[C@@]4(OC)OC(=O)C(COC(C)=O)=C14)O2)[C@@H]3O
HeLa
  IC50: > 10 µM

## C/C=C(\C)C(=O)O[C@H]1C[C@@]23CO[C@@H](C[C@](C)(/C=C4/OC(=O)C(COC)=C41)O2)[C@@H]3O
HeLa
  IC50: > 10 µM

## C/C=C(\C)C(=O)O[C@H]1C[C@@]23CO[C@@H](C[C@](C)(/C=C4/OC(=O)C(COC(C)=O)=C41)O2)[C@@H]3O
HeLa
  IC50: > 10 µM

## Cc1c2ccncc2c(C)c2c1[nH]c1ccccc12 [ELLIPTECINE]
HeLa
  IC50: 2 µM
